{"source": "paper PMC11116414", "about": "“Impact of secretin receptor homo-dimerization on natural ligand binding” (Nature Communications, 2024)", "key": {"[1]": {"molecular_target": "Cys2-[Tyr10]secretin(1-27) agonist probe", "assay": "cysteine trapping, autoradiograph densitometry", "conditions": "ECL2 series; intact COS-1 cells; non-reducing 10% SDS-PAGE; n = 4; read off a plot"}, "[2]": {"molecular_target": "Cys7-[Tyr10]secretin(1-27) agonist probe", "assay": "cysteine trapping, autoradiograph densitometry", "conditions": "intact COS-1 cells, non-reducing 10% SDS-PAGE, n = 3, read off a plot"}, "[3]": {"molecular_target": "Cys6-[Tyr10]secretin(1-27) agonist probe", "assay": "cysteine trapping, autoradiograph densitometry", "conditions": "intact COS-1 cells, non-reducing 10% SDS-PAGE, n = 5, read off a plot"}, "[4]": {"molecular_target": "T1, WT SecR (Homo sapiens, UniProt P47872)", "T1 construct": "expressed in transfected cells; membranes isolated from CHO-SecR cells", "T1 sequence (P47872 23-440)": "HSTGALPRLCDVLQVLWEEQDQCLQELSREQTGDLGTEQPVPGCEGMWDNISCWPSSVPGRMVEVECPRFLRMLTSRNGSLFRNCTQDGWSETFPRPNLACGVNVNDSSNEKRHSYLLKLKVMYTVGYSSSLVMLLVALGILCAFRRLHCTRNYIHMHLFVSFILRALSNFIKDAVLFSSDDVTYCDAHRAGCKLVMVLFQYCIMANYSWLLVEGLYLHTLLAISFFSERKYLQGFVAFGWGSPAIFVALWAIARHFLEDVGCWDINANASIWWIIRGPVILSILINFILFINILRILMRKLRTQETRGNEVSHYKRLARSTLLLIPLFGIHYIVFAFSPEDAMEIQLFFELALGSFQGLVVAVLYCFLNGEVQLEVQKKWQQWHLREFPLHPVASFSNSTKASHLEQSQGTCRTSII", "assay": "KI collisional fluorescence quenching of receptor-bound probes, WT SecR", "conditions": "KI quencher, mean ± S.E.M., n = 3", "protocol": "(§1) Incubations were terminated by separating receptor-bound ligand from free ligand using centrifugation at 25,000 × g for 10 min at 4 °C. The sample pellet was washed again with ice-cold KRH medium and resuspended in KRH medium for fluorescence measurements. The samples were excited at 481 nm and the emission was collected at 521 nm, with a bandwidth of 5 nm at an integration rate of 0.5 nm/s, and fluorescence intensities were collected by constant wavelength single point analysis using SPEX Fluoromax 3 (Horiba Scientific, Piscataway, NJ) with Origin version 8.1.\n(§2) Fluorescence collisional quenching studies were performed using the hydrophilic quenching reagent, potassium iodide (KI), as described previously. Fluorescence intensities of receptor-bound probes were collected by exciting samples at 481 nm using Fluoromax-3 spectrofluorometer single point measurement by Origin version 8.1. […] The effect of ionic strength was determined by measuring fluorescence intensities in potassium chloride. […] The Stern–Volmer quenching constant, KSV, was calculated from the slope of Fo/F as a function of the quencher concentration [I^−]."}, "[5]": {"molecular_target": "T2, SecR(G264A,I268A) (Homo sapiens, UniProt P47872, G264A/I268A)", "T2 construct": "expressed in transfected cells; membranes isolated from these cells", "T2 sequence (P47872 23-440 G264A/I268A)": "as the sequence (P47872 23-440) above, with G242A, I246A counted along it", "assay": "KI collisional fluorescence quenching of receptor-bound probes, mutant SecR", "conditions": "KI quencher, mean ± S.E.M., n = 3", "protocol": "as §1, §2"}, "[6]": {"molecular_target": "T1, WT SecR", "assay": "Fluorescence anisotropy of receptor-bound probes, WT SecR", "conditions": "for Anisotropy: SecR WT, membranes, 50 nM probe, mean ± S.E.M., n = 3; for anisotropy, + GppNHp vs control, in words: WT SecR, 20 and 37 °C", "protocol": "as §1"}, "[7]": {"molecular_target": "T2, SecR(G264A,I268A)", "assay": "Fluorescence anisotropy of receptor-bound probes, mutant SecR", "conditions": "membranes, 50 nM probe, mean ± S.E.M., n = 3", "protocol": "as §1"}, "[8]": {"conditions": "+GppNHp (uncoupled state, 10 µM)"}, "[9]": {"conditions": "-GppNHp (active state), 50 nM probe, ex 481/em 521 nm"}, "[10]": {"conditions": "control, 20 °C, KRH pH 7.4, ex 481 nm"}, "[11]": {"conditions": "control, 37 °C, KRH pH 7.4, ex 481 nm"}}}
{"compound": "human wild type secretin receptor (SecR WT) (from UniProt P47872) G264A; I268A; W295C", "values": [{"measurement": "other: receptor labeling (% of maximum signal) (% of maximum signal)", "setting": "[1]", "result": 93}, {"measurement": "other: receptor labeling (% of maximum signal) (% of maximum signal)", "setting": "[2]; ECL2 series", "result": 83}]}
{"compound": "human wild type secretin receptor (SecR WT) (from UniProt P47872) G264A; I268A; I288C", "values": [{"measurement": "other: receptor labeling (% of maximum signal) (% of maximum signal)", "setting": "[2]; ECL2 series", "result": 68}]}
{"compound": "human wild type secretin receptor (SecR WT) (from UniProt P47872) G264A; I268A; L374C", "values": [{"measurement": "other: receptor labeling (% of maximum signal) (% of maximum signal)", "setting": "[3]; ECL3 series", "result": 77}, {"measurement": "other: receptor labeling (% of maximum signal) (% of maximum signal)", "setting": "[2]; ECL3 series", "result": 88}]}
{"compound": "CC(C)C[C@H](NC(=O)CNC(=O)[C@H](CCC(N)=O)NC(=O)[C@H](CC(C)C)NC(=O)[C@H](CC(C)C)NC(=O)[C@H](CCCNC(=N)N)NC(=O)[C@H](CCC(N)=O)NC(=O)[C@H](CC(C)C)NC(=O)[C@H](CCCNC(=N)N)NC(=O)[C@H](C)NC(=O)CNC(=O)[C@H](CCC(=O)O)NC(=O)[C@H](CCCNC(=N)N)NC(=O)[C@H](CCCCNC(=O)c1ccc(-c2c3ccc(=N)c(S(=O)(=O)O)c-3oc3c(S(=O)(=O)O)c(N)ccc23)c(C(=O)O)c1)NC(=O)[C@H](CCCNC(=N)N)NC(=O)[C@H](CO)NC(=O)[C@H](CC(C)C)NC(=O)[C@H](CCC(=O)O)NC(=O)[C@H](CO)NC(=O)[C@@H](NC(=O)[C@H](Cc1ccccc1)NC(=O)[C@@H](NC(=O)CNC(=O)[C@H](CC(=O)O)NC(=O)[C@H](CO)NC(=O)[C@@H](N)Cc1c[nH]cn1)[C@@H](C)O)[C@@H](C)O)C(=O)N[C@H](C(N)=O)C(C)C", "note": "[(Lys^13-Alexa^488)Sec]", "values": [{"measurement": "Stern-Volmer quenching constant (Ksv)", "setting": "[4]; [8]", "result": "3.9±02"}, {"measurement": "Stern-Volmer quenching constant (Ksv)", "setting": "[4]; [9]", "result": "7.9±0.6"}, {"measurement": "Stern-Volmer quenching constant (Ksv)", "setting": "[5]; [8]", "result": "4.5±0.9"}, {"measurement": "Stern-Volmer quenching constant (Ksv)", "setting": "[5]; -GppNHp (active state)", "result": "5.2±0.4"}, {"measurement": "Anisotropy", "setting": "[6]; +GppNHp (10 µM), 20 °C", "result": "0.20 ± 0.02"}, {"measurement": "Anisotropy", "setting": "[6]; +GppNHp (10 µM), 37 °C", "result": "0.12 ± 0.01"}, {"measurement": "Anisotropy", "setting": "[6]; [10]", "result": "0.14 ± 0.01"}, {"measurement": "Anisotropy", "setting": "[6]; [11]", "result": "0.06 ± 0.01"}, {"measurement": "anisotropy, + GppNHp vs control, in words", "setting": "[6]", "result": "higher anisotropy after treatment with GppNHp than the control state"}, {"measurement": "Anisotropy", "setting": "[7]; +GppNHp (10 µM), 20 °C", "result": "0.20 ± 0.01"}, {"measurement": "Anisotropy", "setting": "[7]; +GppNHp (10 µM), 37 °C", "result": "0.11 ± 0.01"}, {"measurement": "Anisotropy", "setting": "[7]; control, 20 °C", "result": "0.18 ± 0.02"}, {"measurement": "Anisotropy", "setting": "[7]; control, 37 °C", "result": "0.11 ± 0.01"}]}
{"compound": "CC(C)C[C@H](NC(=O)CNC(=O)[C@H](CCC(N)=O)NC(=O)[C@H](CC(C)C)NC(=O)[C@H](CCCCNC(=O)c1ccc(-c2c3ccc(=N)c(S(=O)(=O)O)c-3oc3c(S(=O)(=O)O)c(N)ccc23)c(C(=O)O)c1)NC(=O)[C@H](CCCNC(=N)N)NC(=O)[C@H](CCC(N)=O)NC(=O)[C@H](CC(C)C)NC(=O)[C@H](CCCNC(=N)N)NC(=O)[C@H](C)NC(=O)CNC(=O)[C@H](CCC(=O)O)NC(=O)[C@H](CCCNC(=N)N)NC(=O)[C@H](CC(C)C)NC(=O)[C@H](CCCNC(=N)N)NC(=O)[C@H](CO)NC(=O)[C@H](CC(C)C)NC(=O)[C@H](CCC(=O)O)NC(=O)[C@H](CO)NC(=O)[C@@H](NC(=O)[C@H](Cc1ccccc1)NC(=O)[C@@H](NC(=O)CNC(=O)[C@H](CC(=O)O)NC(=O)[C@H](CO)NC(=O)[C@@H](N)Cc1c[nH]cn1)[C@@H](C)O)[C@@H](C)O)C(=O)N[C@H](C(N)=O)C(C)C", "note": "[(Lys^22-Alexa^488)Sec]", "values": [{"measurement": "Stern-Volmer quenching constant (Ksv)", "setting": "[4]; [8]", "result": "4.5±0.2"}, {"measurement": "Stern-Volmer quenching constant (Ksv)", "setting": "[4]; [9]", "result": "8.9±1.0"}, {"measurement": "Stern-Volmer quenching constant (Ksv)", "setting": "[5]; [8]", "result": "4.3±0.2"}, {"measurement": "Stern-Volmer quenching constant (Ksv)", "setting": "[5]; -GppNHp (active state)", "result": "6.1±0.3"}, {"measurement": "Anisotropy", "setting": "[6]; +GppNHp (10 µM), 20 °C", "result": "0.20 ± 0.02"}, {"measurement": "Anisotropy", "setting": "[6]; +GppNHp (10 µM), 37 °C", "result": "0.12 ± 0.01"}, {"measurement": "Anisotropy", "setting": "[6]; [10]", "result": "0.14 ± 0.01"}, {"measurement": "Anisotropy", "setting": "[6]; [11]", "result": "0.06 ± 0.01"}, {"measurement": "anisotropy, + GppNHp vs control, in words", "setting": "[6]", "result": "higher anisotropy after treatment with GppNHp than the control state"}, {"measurement": "Anisotropy", "setting": "[7]; +GppNHp (10 µM), 20 °C", "result": "0.19 ± 0.01"}, {"measurement": "Anisotropy", "setting": "[7]; +GppNHp (10 µM), 37 °C", "result": "0.12 ± 0.01"}, {"measurement": "Anisotropy", "setting": "[7]; control, 20 °C", "result": "0.18 ± 0.01"}, {"measurement": "Anisotropy", "setting": "[7]; control, 37 °C", "result": "0.10 ± 0.01"}]}
{"compound": "human wild type secretin receptor (SecR WT) (from UniProt P47872) G264A; I268A; W296C", "values": [{"measurement": "other: receptor labeling (% of maximum signal) (% of maximum signal)", "setting": "[3]; ECL2 series", "result": 68}]}
{"compound": "human wild type secretin receptor (SecR WT) (from UniProt P47872) G264A; I268A; A359C", "values": [{"measurement": "other: receptor labeling (% of maximum signal) (% of maximum signal)", "setting": "[2]; ECL3 series", "result": 85}]}
